Source: patent publication US10870670B2, “Preparation of (S,S)-secoisolariciresinol diglucoside and (R,R)-secoisolariciresinol diglucoside” (The Trustees of the University of Pennsylvania, priority 2013, dated 2020)

Assays:
Format in all cases: biochemical
[1] = Reducing power activity assay (ferricyanide reduction, absorbance at 700 nm); settings: regression line over 1-100 μM; sodium phosphate buffer pH 6.6; n=3; read-out: EC50 for reducing power (mean±std. dev.)
Procedure: The determination of reducing power was performed as described by Yen and Der (J. Am. Oil Chem. Soc. 1993, 70, 383). Reducing power assay determines the reducing potential of the test compound which reacts with potassium ferricyanide (Fe^+3) to form potassium ferrocyanide (Fe^+2), which subsequently reacts with ferric chloride to produce a ferric-ferrous complex that has maximum absorption at 700 nm. Various concentrations (1-500 μM) of test compounds were taken in sodium phosphate buffer (0.1 M, pH 6.6) in 96-well microplates and mixed with potassium ferricyanide (1%). Samples were incubated at 50° C. and equal volume of 10% trichloroacetic acid was added. The upper layer was mixed with deionized water (1:1:2) and ferric chloride (0.1%). The absorbance was read at 700 nm on a Bio-Rad microplate reader (Bio-Rad, Hercules, Calif.). The increase in absorbance indicates increase in reducing power.
The reducing powers of synthetic (S,S)-SDG-1, synthetic (R,R)-SDG-2, natural (S,S)-SDG-1, ascorbic acid, and α-tocopherol were determined by the reduction of K3FeCN6 in the presence of FeCl3, as measured by the absorbance of the resulting ferric-ferrous complex (FIG. 2). […] This allowed the half maximal effective concentration (EC50) for reducing power to be calculated (FIG. 3).

[2] = DPPH radical scavenging assay; settings: for EC50: regression lines over 5-100 μM, 250 μM DPPH, Tris buffer pH 7.4, 20 min, n=3, read-out: DPPH free radical scavenging activity EC50
Procedure: The ability of the SDGs to scavenge DPPH radicals was assessed as described by Moree et al. (Free Rad. Anitox. 2011, 1, 31) with minor modifications for use in microplates. Briefly, different concentrations of SDG isomers and other test compounds were incubated with 200 μL medium in 96-well microplates containing 0.1 M Tris buffer (pH 7.4) and 250 μM DPPH solution, and kept in the dark for 20 min. The absorbance was read at 517 nm in a Bio-Rad microplate reader. Ascorbic acid and α-tocopherol were used as known antioxidants for comparison. The radical scavenging activity was measured as a decrease in the absorbance of DPPH and calculated using the following equation: Percentage inhibition=[O.D.control−O.D.treated/O.D.control]×100.
The free radical scavenging activities of synthetic (S,S)-SDG-1 and (R,R)-SDG-2 were determined using a 2,2-diphenyl-1-pierylhydrazyl (DPPH) free radical scavenging assay and was compared to those of natural (S,S)-SDG-1, ascorbic acid, and α-tocopherol (FIG. 4). […] Establishing regression lines for the potentials at low- and mid-concentration ranges (5-100 μM) allowed the free radical EC50 scavenging activity of these compounds to be determined.

[3] = Peroxyl radical scavenging potential (ORAC assay); settings: for Antioxidant capacity Against Peroxyl Radicals (TE): ORAC assay, AAPH-generated radicals, Trolox equivalents, mean±SD, n=3; for Inhibition of fluorescein oxidation by peroxyl radicals relative to trolox: ORAC, trolox standard, AAPH
Procedure: The ability of SDGs to scavenge peroxyl radicals in a chemical system was evaluated using an ORAC assay kit (# STA345) obtained from Cell Biolab (San Diego, Calif.). Peroxyl radicals were generated by AAPH (2,2′-azobis(2-amidinopropanedihydrochloride). Oxidation of fluorescein was measured using a fluorescence microplate reader. Antioxidants inhibit fluorescein oxidation. Trolox was used as a standard for calibration curve. Calculations used SDG concentrations that fit the linear part of the calibration curve. SDG concentrations were used in the range of 8 μM-1 mM. Antioxidant capacity against peroxyl radicals was expressed as Trolox equivalent (TE).
(§1) The ability of synthetic (S,S)-SDG-1 and (R,R)-SDG-2 to scavenge hydroxyl and peroxyl radicals as manifested by their inhibition of the oxidation of fluorescein was assessed by the hydroxyl radical averting capacity (HORAC, gallic acid standard) and peroxyl radical absorbance capacity assays (ORAC, trolox standard), respectively (Table 1). […] However, synthetic (S,S)-SDG-1 activity differed from natural (S,S)-SDG-1, likely due to trace impurities.
(§2) In Table 1, hydroxyl radicals were generated from hydrogen peroxide by Fenton reaction. Peroxyl radicals were generated by AAPH (2,2′-azobis(2-amidinopropane) dihydrochloride). Oxidation of fluorescein was measured. Calculations used SDG concentrations that fitted the linear part of the calibration curve. The results are presented as mean±standard deviation (n=3).

[4] = Hydroxyl radical scavenging potential (HORAC assay); settings: for Antioxidant capacity Against Hydroxyl Radicals (GAE): HORAC assay, Fenton reaction, gallic acid equivalent, mean±SD, n=3; for Inhibition of fluorescein oxidation by hydroxyl radicals relative to gallic acid: HORAC, gallic acid standard, concentration-dependent
Procedure: The ability of SDGs to scavenge hydroxyl radicals in a chemical system was evaluated using HORAC Assay kit (# TA30) obtained from Oxford Biomedical Research. Hydroxyl radicals were generated from hydrogen peroxide by Fenton reaction. Oxidation of fluorescein was measured on a fluorescence microplate reader. Antioxidants inhibit fluorescein oxidation. Gallic acid was used as a standard for calibration curve. Calculations used SDG concentration that fit the linear part of the calibration curve. SDG concentrations were used in the range of […]. Antioxidant capacity against hydroxyl radicals was expressed as gallic acid equivalent (GAE).
as §1, §2

EC50 [1] [µM]	EC50 [2] [µM]	SMILES	Antioxidant capacity Against Peroxyl Radicals (TE) [3] [TE]	Inhibition of fluorescein oxidation by peroxyl radicals relative to trolox [3]	Antioxidant capacity Against Hydroxyl Radicals (GAE) [4] [GAE]	Inhibition of fluorescein oxidation by hydroxyl radicals relative to gallic acid [4]	DPPH inhibition at higher concentrations ([2]; 250-500 μM)
945 ± 148	133 ± 12.6	Cc1c(C)c2c(c(C)c1O)CC[C@@](C)(CCC[C@H](C)CCC[C@H](C)CCCC(C)C)O2 [α-tocopherol, reference compound]					
275 ± 13.2	83.9 ± 2.8	COc1cc(C[C@H](CO[C@@H]2O[C@H](CO)[C@@H](O)[C@H](O)[C@H]2O)[C@@H](CO[C@@H]2O[C@H](CO)[C@@H](O)[C@H](O)[C@H]2O)Cc2ccc(O)c(OC)c2)ccc1O [natural (S,S)-SDG-1, (S,S)-secoisolariciresinol diglucoside]	2.55 ± 0.11	two-fold increase in potency over the trolox standard	3.68 ± 0.27		
332 ± 21.2	124 ± 8.67	COc1cc(C[C@@H](CO[C@@H]2O[C@H](CO)[C@@H](O)[C@H](O)[C@H]2O)[C@H](CO[C@@H]2O[C@H](CO)[C@@H](O)[C@H](O)[C@H]2O)Cc2ccc(O)c(OC)c2)ccc1O [synthetic (R,R)-SDG-2, (R,R)-secoisolariciresinol diglucoside]	2.20 ± 0.10	two-fold increase in potency over the trolox standard	1.96 ± 0.27	two-fold higher than gallic acid	
1130 ± 88.8	440 ± 11.8	O=C1O[C@H]([C@@H](O)CO)C(O)=C1O [ascorbic acid, reference compound]					
292 ± 27.7	158 ± 21.3	COc1cc(C[C@H](CO[C@@H]2O[C@H](CO)[C@@H](O)[C@H](O)[C@H]2O)[C@@H](CO[C@@H]2O[C@H](CO)[C@@H](O)[C@H](O)[C@H]2O)Cc2ccc(O)c(OC)c2)ccc1O [synthetic (S,S)-SDG-1, (S,S)-secoisolariciresinol diglucoside]	3.03 ± 0.04	two-fold increase in potency over the trolox standard	2.09 ± 0.16	two-fold higher than gallic acid	significantly lower than those exerted by (R,R)-SDG-2 and natural (S,S)-SDG-1
